The values that follow come from patent publication US11046991B2, “Rapid preconcentration of viable bacteria using magnetic ionic liquid for PCR amplification and culture-based diagnostics” (priority 2017, dated 2021).

Read-outs that look alike come from different tables or passages of the source.

Data set [1] in a line: Magnetic susceptibility, SQUID magnetometer. As to conditions: for μeff, effective magnetic moment: from magnetic susceptibility data, SQUID. The data set is classed as physicochemical. The method, then:
The μeff values for each exemplary MIL were determined using a Quantum Design MPMS SQUID magnetometer following procedures similar to those previously reported. (Y. Mudryk, P. Manfrinetti, V. Smetana, J. Liu, M. L. Fornasini, A. Provino, V. K. Pecharsky, G. J. Miller and K. A. Gschneidner, J. Alloys Compd, 2013, 557, 252-260).

For data set [2], the system named is E. coli K12 cells. It is filed as cell-based. Here is the method:
Since culture-based methods are contingent upon the isolation of viable bacteria, the detection of E. coli following MIL-based cell extraction is influenced by the cytotoxicity of MILs. To study the effect of MILs on the growth of E. coli, a 1 mL aliquot of LB media was inoculated with 8.0×10^2±0.5×10^2 CFUs mL^−1 and spiked with approximately 10 μL of a MIL. The mixture was agitated by vortex to simulate the recovery procedure after which a 100 μL aliquot of the suspension was plated on selective agar.

In data set [3] the test system is E. coli. The data set can be described thus: PCR amplification of LB back-extraction solution after MIL-based extraction. As to conditions: for E. coli concentration at which bacterial pDNA was detected by PCR: cell recovery in LB media prior to PCR, 2 mL sample; for amplicon after extraction of cell filtrate (cell-free DNA): filtrate of 1.68×10^5 CFUs mL^−1 suspension through 0.22 μm filter. Here is the method: (§1) A general schematic for the MIL-based cell extraction procedure is depicted in FIG. 10. In a 4 mL screw cap glass vial, a controlled volume (e.g., 10 μL) of MIL was added to 2 mL of diluted cell suspension and dispersed into microdroplets by vortex agitation for 15-120 s. Following the dispersive extraction, a 0.9 T magnetic field was applied to collect the cell-enriched MIL extraction phase. After the aqueous phase was decanted, the MIL was subjected to a static wash with 2 mL of deionized water to ensure that residual cell suspension was removed. The extracted E. coli was recovered from the MIL solvent by vortexing the MIL in 1 mL of LB media from 30 to 300 s. Following back-extraction, aliquots of the cell-enriched LB media were cultured on selective agar as well as analyzed by PCR.
Following the recovery of E. coli cells from the MIL extraction phase, an aliquot of the LB back-extraction solution was analyzed by PCR. […] The thermal protocol used for amplification of the MTAP gene was as follows: 5 min initial denaturation at 95° C. followed by 30 cycles of 30 s denaturation at 95° C., 45 s annealing at 54° C., and elongation for 45 s at 72° C.
After thermal cycling, the PCR products were mixed with 10 μL of bromophenol blue tracking dye solution (30% glycerol v/v) and loaded on a 1% agarose gel stained with SYBR Safe DNA gel stain. The PCR amplicon was subjected to electrophoresis at approximately 4 V cm^−1 and subsequently visualized using a transilluminator.
To improve detection limits, cells were recovered from the MIL phase using […] and a 1 μL aliquot of LB media was analyzed by PCR amplification. […] MILs as extraction media.
MIL. […] 1999; 37:2479-82). It should be noted that PCR assays are unable to distinguish between live and dead cells and, therefore, are complementary to microbiological culture for the determination of viable cells in a sample.

Data set [4] can be described thus: Thermal stability, MIL film in GC capillary with flame ionization detection. The data set is classed as physicochemical. The following applies: for onset of decomposition (thermal stability): 40° C. to 350° C. at 1° C./min. Here is the method:
The thermal stability of all exemplary MILs was tested by monitoring the thermal volatilization/decomposition of the MIL when the MIL was used as a stationary phase in gas chromatography. To achieve this, an approximate 0.25-0.28 μm film of IL/MIL was immobilized on the inner wall of a fused silica capillary. The IL/MIL coated capillary was then heated slowly in a GC oven and an ultra-sensitive flame ionization detector (FID) was used to detect any volatilization/decomposition of the IL/MIL. These tests were run using a temperature program starting at 40° C. and increased at 1° C./min to 350° C. on an Agilent 6850 gas chromatograph with a flame ionization detector (Santa Clara, Calif., USA). The [P66614^+] [Cl^−] IL was also coated under the same conditions and was used as a reference.

Data set [5] in a line: 1 second vial inversion (viscosity comparison). The data set is classed as physicochemical. As to conditions: 1 second inversion of each MIL.
From the text: FIG. 2 compares the viscosities of [P66614^+]2[MnCl4^2−], [P66614^+][Ni(hfacac)3^−], and [P66614^+][Nd(hfacac)4^−] by performing a 1 second inversion of each MIL.
For data set [6] the following is noted: 25° C.; cited from earlier work.
Data set [7] in a line: Hydrophobicity comparison: 50 μL MIL in 12 mL water, vortexed and heated to 85° C. It is filed as physicochemical. The following applies: 50 μL MIL in 12 mL deionized water, 85° C. for 10 minutes. Here is the method: […] […] Vortexing the MIL droplet caused dispersion of the MIL into fine microdroplets that were suspended within the aqueous solution, ultimately settling at the bottom of the vessel. […] Each MIL was vortexed and heated to 85° C. for 10 minutes.

Data set [8] relates to E. coli. The data set can be described thus: MIL-based extraction of viable E. coli, selective culture and colony enumeration. As to conditions: aqueous solutions of 1.68×10^5 CFUs mL^−1. Here is the method: For each cell extraction experiment, 2 mL of sterile LB media with 100 μg mL^−1 carbenicillin was inoculated with 0.5 μL of E. coli glycerol stock and incubated overnight at 37° C. and 225 rpm. The overnight culture was centrifuged at 2820 g for 8 min and the supernatant discarded. The cells were then vortexed for 15 s in 2 mL of deionized water and centrifuged once again at 2820 g for 8 min. Following a total of three washes, the cells were re-suspended in 1 mL of deionized water. The concentration of cells within the suspension was initially determined by measuring the optical density of the sample at 600 nm (OD600), where an OD600 equal to 1.000 represents 8×10^8 E. coli cells mL^−1. The bacterial suspension was diluted to an OD600 value of 0.021 (1.68×10^7 cells mL^−1), after which 10-fold serial dilutions were performed to yield the desired sample concentration. Since the sample concentrations were below the detection limit of the spectrophotometer, the final concentration of each sample (in CFUs mL^−1) was obtained using a plate counting method. Briefly, 15 μL of diluted cell suspension were mixed with 985 μL of LB media and vortexed for 3 min. A […] aliquot of the suspension was spread onto a selective LB agar plate with 100 μg mL^−1 carbenicillin and incubated overnight at 37° C. to obtain visible colonies.
as §1
To detect viable bacteria recovered from the MIL extraction solvent, a culture-based method selective for E. coli transformants was employed. Following MIL-based extraction, a 100 μL aliquot of the LB back-extraction solution was plated on LB agar containing 100 μg mL^−1 carbenicillin and incubated overnight at 37° C. Visible colonies were counted, tabulated, and compared to the colonies obtained for the sample prior to extraction. The enrichment factor (EF) from the MIL-based extraction was calculated by Equation 1, where CMIL is the concentration of CFUs within the MIL extraction phase and CS represents the concentration of CFUs in the bacterial suspension prior to extraction. EF=CMIL/CS Equation 1
To determine if MILs can extract viable E. coli cells, aqueous solutions of 1.68×10^5 CFUs mL^−1 were extracted with each of the seven MILs using an approach that is similar to one depicted in FIG. 10. […] [Co(hfacac)3^−] MILs with the greatest number of colonies obtained from the Ni(II)-based MIL extractions.

[9] abbreviates: LB media with 8.0×10^2 CFUs mL^−1, approximately 10 μL of MIL, compared to unexposed standard.

On to `CCCCCCCCCCCCCC[P+](CCCCCC)(CCCCCC)CCCCCC.O=C(C=C([O-])C(F)(F)F)C(F)(F)F.O=C(C=C([O-])C(F)(F)F)C(F)(F)F.O=C(C=C([O-])C(F)(F)F)C(F)(F)F.O=C(C=C([O-])C(F)(F)F)C(F)(F)F.[Dy+3]` [MIL 4, [P66614^+] tetrakis(hexafluoroacetylaceto)dysprosate(III)], for which, in data set [1], the “μeff, effective magnetic moment” value turned out to be 9.7 μB. Besides, the “influence on the growth of E. coli” value in data set [2] (setting [9]) is on record as “little to no influence on the growth of E. coli”. Further, in data set [3], the “E. coli concentration at which bacterial pDNA was detected by PCR” value (“E. coli concentration” for short) was 1.68×10^5 CFUs mL^−1 and the “amplicon after extraction of cell filtrate (cell-free DNA)” value was “No amplicon was detected”.
Take `CCCCCCCCCCCCCC[P+](CCCCCC)(CCCCCC)CCCCCC.[Cl-]` [[P66614^+] [Cl^−], Trihexyl(tetradecyl)phosphonium chloride, reference compound]: the “thermal decomposition compared with the MILs” value in data set [4] (reference) is “lowest thermal decomposition”.
What is called viscosity is the internal friction of a fluid under shear. Consider `CCCCCCCCCCCCCC[P+](CCCCCC)(CCCCCC)CCCCCC.CCCCCCCCCCCCCC[P+](CCCCCC)(CCCCCC)CCCCCC.[Cl][Mn-2]([Cl])([Cl])[Cl]` [[P66614^+]2[MnCl4^2−], [P66614^+] tetrachloromanganate(II), reference compound], for which the “movement down the vial” value in data set [5] is given as “little to no movement down the vial”. In addition, in data set [6], the viscosity is given as 75230 cP.
For the compound `CCCCCCCCCCCCCC[P+](CCCCCC)(CCCCCC)CCCCCC.O=C(C=C([O-])C(F)(F)F)C(F)(F)F.O=C(C=C([O-])C(F)(F)F)C(F)(F)F.O=C(C=C([O-])C(F)(F)F)C(F)(F)F.O=C(C=C([O-])C(F)(F)F)C(F)(F)F.[Nd+3]` [MIL 6, [P66614^+] tetrakis(hexafluoroacetylaceto)neodymate(III)], in data set [7], the “dissolution into the aqueous phase” value is reported as “no sign of dissolution into the aqueous phase”. In addition, the “onset of decomposition (thermal stability)” value in data set [4] was “around 225 °C”. Besides, the “μeff, effective magnetic moment” value in data set [1] worked out at 2.8 μB. For the same compound, the “influence on the growth of E. coli” value in data set [2] (setting [9]) is reported as “little to no influence on the growth of E. coli”. Also, in data set [3], the “E. coli concentration” value was 1.68×10^5 CFUs mL^−1 and the “amplicon after extraction of cell filtrate (cell-free DNA)” value was “No amplicon was detected”. Further, in data set [5], the “movement down the vial” value is given as “flow easily toward the bottom of the vial”.
With `CCCCCCCCCCCCCC[P+](CCCCCC)(CCCCCC)CCCCCC.O=C(C=C([O-])C(F)(F)F)C(F)(F)F.O=C(C=C([O-])C(F)(F)F)C(F)(F)F.O=C(C=C([O-])C(F)(F)F)C(F)(F)F.[Co+2]` [MIL 1, trihexyl(tetradecyl)phosphonium tris(hexafluoroacetylaceto)cobaltate(II)], the “dissolution into the aqueous phase” value in data set [7] is “no sign of dissolution into the aqueous phase”. For the same compound, in data set [4], the “sharp increase in the rate of decomposition” value was “around 200 °C” and the “onset of decomposition (thermal stability)” value is “approximately 130 °C”. In addition, the “μeff, effective magnetic moment” value in data set [1] was found to be 4.3 μB. In addition, in data set [2], the “influence on the growth of E. coli” value is on record as “little to no influence on the growth of E. coli”. In data set [3], the “E. coli concentration” value is on record as 1.68×10^5 CFUs mL^−1.
With `CCCCCCCCCCCCCC[P+](CCCCCC)(CCCCCC)CCCCCC` [No. 1, [P66614^+] tetrachloroferrate(III), reference compound], the “dissolution into the aqueous phase” value in data set [7] was “dissolving into the aqueous solution”. Moreover, in data set [2] (setting [9]), the “influence on the growth of E. coli” value is recorded as “hindered the proliferation of cells”. For the same compound, in data set [6], the viscosity was 650 cP.
`CCCCCCCCCCCCCC[P+](CCCCCC)(CCCCCC)CCCCCC.CCCCCCCCCCCCCC[P+](CCCCCC)(CCCCCC)CCCCCC.CCCCCCCCCCCCCC[P+](CCCCCC)(CCCCCC)CCCCCC.[Cl][Gd-3]([Cl])([Cl])([Cl])([Cl])[Cl]` [[P66614]3[GdCl6^3−], [P66614] hexachlorogadolinate(III)]: the viscosity in data set [6] is reported as 18390 cP.
Consider `CCCCCCCCCCCCCC[P+](CCCCCC)(CCCCCC)CCCCCC.O=C(C=C([O-])C(F)(F)F)C(F)(F)F.O=C(C=C([O-])C(F)(F)F)C(F)(F)F.O=C(C=C([O-])C(F)(F)F)C(F)(F)F.[Mn+2]` [MIL 2, [P66614^+] tris(hexafluoroacetylaceto)manganate(II)], for which the “degradation start, higher than the cobalt-based MIL” value in data set [4] is “approximately 25 °C”. For the same compound, the μeff in data set [1] (at higher temperatures) was found to be 5.5 μB; in data set [1] (at lower temperatures) it was 5.8 μB. The “visible colonies after back-extraction with LB media and culture on selective agar” value in data set [8] is “did not yield any visible colonies”. Moreover, the “influence on the growth of E. coli” value in data set [2] is reported as “little to no influence on the growth of E. coli”.
As for `CCCCCCCCCCCCCC[P+](CCCCCC)(CCCCCC)CCCCCC.O=C(C=C([O-])C(F)(F)F)C(F)(F)F.O=C(C=C([O-])C(F)(F)F)C(F)(F)F.O=C(C=C([O-])C(F)(F)F)C(F)(F)F.O=C(C=C([O-])C(F)(F)F)C(F)(F)F.[Gd+3]` [MIL 5, [P66614^+] tetrakis(hexafluoroacetylaceto)gadolinate(III)], the “μeff, effective magnetic moment” value in data set [1] is reported as 7.7 μB. For the same compound, the “influence on the growth of E. coli” value in data set [2] (setting [9]) is recorded as “hindered the proliferation of cells”.
